Assay results from the NIST ThermoML archive (doi:10.1016/j.fluid.2006.01.014).
± gives the expanded uncertainty stated by the source.

Settings: Liquid; Ebulliometric method (Recirculating still)

| Normal boiling temperature [°C] | Compound |
| --- | --- |
| 80.01 ± 0.2 | c1ccccc1 [benzene] |
| 70.31 ± 0.2 | C[Si](C)(Cl)Cl [dichlorodimethylsilane] |
| 66.4 ± 0.2 | C[Si](Cl)(Cl)Cl [trichloromethylsilane] |
